Measurements published in patent publication US20080063723A1, “ISOTHIAZOLIN-3-ONE-CONTAINING ANTIMICROBIAL COMPOSITION” (priority 2006, published 2008).

Legend:
Type in all cases: cell-based
[1] = tested on: two common mold species (Aspergillus and Fusarium); experiment: Mold control on treated wood, overall statements for both molds
Protocol: (§1) To determine the effectiveness of compositions containing an alkyl amine in combination with OIT and/or BBIT, such compositions were compared to compositions containing only an alkyl amine or compositions containing only OIT or BBIT. The efficacy of those compositions was shown by applying the compositions to Southern Yellow Pine (SYP) wood samples.
(§2) After the SYP samples were treated with the particular composition to be evaluated, the samples were placed onto a support in an extra depth Petri-dish.
(§3) A fungal spore suspension of two common mold species (Aspergillus and Fusarium) was spread on top of the wood sample. Fungal hyphal growth on the surface of samples was examined under the microscope once every week. The scale based on mycelial coverage of wood surface is as follows:
(§4) To evaluate the effectiveness of the compositions against common species of mold, compositions containing various levels of BBIT, OIT and C12-alkyl amine or a mixture of these components were tested on SYP wood blocks using the testing protocol discussed above. Specifically, compositions shown in Table 2A were applied to the wood blocks to determine anti-fungal efficacy of the compositions.
It is noted that compositions containing OIT and C12-alkyl amine were obtained by mixing compositions A0 and B0 in the recited ratio. […]

Aspergillus sp = experiment: Mold growth on treated Southern Yellow Pine wood samples, Aspergillus
Protocol: as §1, §2, §3, §4
(§5) It is noted that compositions containing OIT and C12-alkyl amine were obtained by mixing compositions A0 and B0 in the recited ratio. Likewise, compositions containing BBIT and C12-alkyl amine were obtained by mixing compositions A0and C0.

Fusarium sp = experiment: Mold growth on treated Southern Yellow Pine wood samples, Fusarium
Protocol: as §1, §2, §3, §4, §5

SMILES: CCCCn1sc2ccccc2c1=O [BBIT alone, N-n-butyl-1,2-benzisothiazolin-3-one]
- performance as a moldicide ([1]; concentration of 80 ppm): performed effectively as a moldicide
- Aspergillus sp mycelial coverage (Aspergillus sp; ratio 1:0, 80 ppm, 1 week): 0 (0%)
- Aspergillus sp mycelial coverage (Aspergillus sp; ratio 1:0, 80 ppm, 2 weeks): 0 (0%)
- Aspergillus sp mycelial coverage (Aspergillus sp; ratio 1:0, 80 ppm, 3 weeks): 0 (0%)
- Aspergillus sp mycelial coverage (Aspergillus sp; ratio 1:0, 80 ppm, 4 weeks): 1 (<10%)
- Fusarium sp mycelial coverage (Fusarium sp; ratio 1:0, 80 ppm, 1 week): 0 (0%)
- Fusarium sp mycelial coverage (Fusarium sp; ratio 1:0, 80 ppm, 2 weeks): 0 (0%)
- Fusarium sp mycelial coverage (Fusarium sp; ratio 1:0, 80 ppm, 3 weeks): 1 (<10%)
- Fusarium sp mycelial coverage (Fusarium sp; ratio 1:0, 80 ppm, 4 weeks): 1 (<10%)

SMILES: CCCCCCCCCCCCN(C)C [C12-alkyl amine alone]
- Aspergillus sp mycelial coverage (Aspergillus sp; Table 4, 1000 ppm, 1 week): 0 (0%)
- Aspergillus sp mycelial coverage (Aspergillus sp; Table 4, 1000 ppm, 2 weeks): 2 (˜10-30%)
- Aspergillus sp mycelial coverage (Aspergillus sp; Table 4, 1000 ppm, 3 weeks): 3 (˜30-60%)
- Aspergillus sp mycelial coverage (Aspergillus sp; Table 4, 1000 ppm, 4 weeks): 3 (˜30-60%)
- Aspergillus sp mycelial coverage (Aspergillus sp; ratio 0:1, 1000 ppm, 1 week): 0 (0%)
- Aspergillus sp mycelial coverage (Aspergillus sp; ratio 0:1, 1000 ppm, 2 weeks): 2 (˜10-30%)
- Aspergillus sp mycelial coverage (Aspergillus sp; ratio 0:1, 1000 ppm, 3 weeks): 3 (˜30-60%)
- Aspergillus sp mycelial coverage (Aspergillus sp; ratio 0:1, 1000 ppm, 4 weeks): 3 (˜30-60%)
- performance as a moldicide (Aspergillus sp; used alone, 1000 ppm, against Aspergillus): less effective
- Fusarium sp mycelial coverage (Fusarium sp; Table 4, 1000 ppm, 1 week): 0, 0, 0, 0 (0%)
- Fusarium sp mycelial coverage (Fusarium sp; Table 4, 1000 ppm, 2 weeks): 0, 0, 0, 0 (0%)
- Fusarium sp mycelial coverage (Fusarium sp; Table 4, 1000 ppm, 3 weeks): 0, 0, 0, 0 (0%)
- Fusarium sp mycelial coverage (Fusarium sp; Table 4, 1000 ppm, 4 weeks): 0, 0, 0, 0 (0%)
- Fusarium sp mycelial coverage (Fusarium sp; ratio 0:1, 1000 ppm, 1 week): 0, 0, 0, 0 (0%)
- Fusarium sp mycelial coverage (Fusarium sp; ratio 0:1, 1000 ppm, 2 weeks): 0, 0, 0, 0 (0%)
- Fusarium sp mycelial coverage (Fusarium sp; ratio 0:1, 1000 ppm, 3 weeks): 0, 0, 0, 0 (0%)
- Fusarium sp mycelial coverage (Fusarium sp; ratio 0:1, 1000 ppm, 4 weeks): 0, 0, 0, 0 (0%)
- performance as a moldicide (Fusarium sp; used alone, 1000 ppm, against Fusarium): performed effectively as a moldicide

SMILES: CCCCCCCCn1sccc1=O [OIT alone, 2-n-octyl-4-isothiazolin-3-one]
- performance as a moldicide ([1]; concentration of 100 ppm): performed effectively as a moldicide
- Aspergillus sp mycelial coverage (Aspergillus sp; ratio 1:0, 100 ppm, 1 week): 0 (0%)
- Aspergillus sp mycelial coverage (Aspergillus sp; ratio 1:0, 100 ppm, 2 weeks): 0 (0%)
- Aspergillus sp mycelial coverage (Aspergillus sp; ratio 1:0, 100 ppm, 3 weeks): 1 (<10%)
- Aspergillus sp mycelial coverage (Aspergillus sp; ratio 1:0, 100 ppm, 4 weeks): 1 (<10%)
- Fusarium sp mycelial coverage (Fusarium sp; ratio 1:0, 100 ppm, 1 week): 0, 0, 0, 0 (0%)
- Fusarium sp mycelial coverage (Fusarium sp; ratio 1:0, 100 ppm, 2 weeks): 0, 0, 0, 0 (0%)
- Fusarium sp mycelial coverage (Fusarium sp; ratio 1:0, 100 ppm, 3 weeks): 0, 0, 0, 0 (0%)
- Fusarium sp mycelial coverage (Fusarium sp; ratio 1:0, 100 ppm, 4 weeks): 0, 0, 0, 0 (0%)
